From patent publication US11547697B2, “Heterocyclic compounds and uses thereof” (MILLENNIUM PHARMACEUTICALS, INC., priority 2009, dated 2023)
Where two headings read alike, the source gives them in different places.

What was measured:
Type in all cases: biochemical
p110α/p85α = p110α/p85α (Homo sapiens (Human), UniProt P42336); assay: PI 3-Kinase (human) HTRF assay, p110α/p85α
p110δ/p85α = p110δ/p85α (Homo sapiens (Human), UniProt O00329); assay: PI 3-Kinase (human) HTRF assay, p110δ/p85α
p110γ = p110γ (Homo sapiens (Human), UniProt P48736); assay: PI 3-Kinase (human) HTRF assay, p110γ
Chain of p110γ (P48736 whole entry): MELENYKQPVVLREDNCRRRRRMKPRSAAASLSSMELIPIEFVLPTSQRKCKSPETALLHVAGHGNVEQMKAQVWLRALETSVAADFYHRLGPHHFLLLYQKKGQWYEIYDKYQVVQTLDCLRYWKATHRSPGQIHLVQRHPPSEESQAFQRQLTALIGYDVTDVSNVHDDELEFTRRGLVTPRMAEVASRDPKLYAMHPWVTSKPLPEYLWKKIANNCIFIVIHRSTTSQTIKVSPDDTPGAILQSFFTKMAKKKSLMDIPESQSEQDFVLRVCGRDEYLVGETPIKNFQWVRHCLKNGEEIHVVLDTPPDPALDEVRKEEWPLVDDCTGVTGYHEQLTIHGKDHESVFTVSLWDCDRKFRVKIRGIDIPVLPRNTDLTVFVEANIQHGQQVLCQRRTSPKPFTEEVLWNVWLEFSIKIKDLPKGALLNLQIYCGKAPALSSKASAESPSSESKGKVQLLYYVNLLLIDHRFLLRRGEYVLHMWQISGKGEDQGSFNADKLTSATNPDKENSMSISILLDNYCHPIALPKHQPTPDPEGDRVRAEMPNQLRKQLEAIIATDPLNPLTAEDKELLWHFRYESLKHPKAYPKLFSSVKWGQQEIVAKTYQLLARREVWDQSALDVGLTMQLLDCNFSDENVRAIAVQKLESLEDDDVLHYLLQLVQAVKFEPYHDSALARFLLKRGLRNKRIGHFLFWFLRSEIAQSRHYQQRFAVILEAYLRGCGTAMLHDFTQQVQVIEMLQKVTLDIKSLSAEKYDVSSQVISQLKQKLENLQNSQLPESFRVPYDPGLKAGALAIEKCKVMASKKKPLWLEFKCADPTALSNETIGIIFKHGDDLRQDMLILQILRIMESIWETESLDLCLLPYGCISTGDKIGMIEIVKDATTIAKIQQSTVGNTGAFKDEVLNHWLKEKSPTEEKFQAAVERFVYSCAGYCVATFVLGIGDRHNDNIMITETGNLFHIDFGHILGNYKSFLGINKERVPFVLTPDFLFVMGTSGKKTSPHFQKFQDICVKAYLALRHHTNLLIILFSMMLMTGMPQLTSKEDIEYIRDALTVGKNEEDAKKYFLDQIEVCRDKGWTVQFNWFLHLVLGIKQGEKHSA

p110β/p85α = p110β/p85α (Homo sapiens (Human), UniProt P42338); assay: PI 3-Kinase (human) HTRF assay, p110β/p85α; conditions: read-out: PI3K β In Vitro IC50
Chain of p110β/p85α (P42338 whole entry): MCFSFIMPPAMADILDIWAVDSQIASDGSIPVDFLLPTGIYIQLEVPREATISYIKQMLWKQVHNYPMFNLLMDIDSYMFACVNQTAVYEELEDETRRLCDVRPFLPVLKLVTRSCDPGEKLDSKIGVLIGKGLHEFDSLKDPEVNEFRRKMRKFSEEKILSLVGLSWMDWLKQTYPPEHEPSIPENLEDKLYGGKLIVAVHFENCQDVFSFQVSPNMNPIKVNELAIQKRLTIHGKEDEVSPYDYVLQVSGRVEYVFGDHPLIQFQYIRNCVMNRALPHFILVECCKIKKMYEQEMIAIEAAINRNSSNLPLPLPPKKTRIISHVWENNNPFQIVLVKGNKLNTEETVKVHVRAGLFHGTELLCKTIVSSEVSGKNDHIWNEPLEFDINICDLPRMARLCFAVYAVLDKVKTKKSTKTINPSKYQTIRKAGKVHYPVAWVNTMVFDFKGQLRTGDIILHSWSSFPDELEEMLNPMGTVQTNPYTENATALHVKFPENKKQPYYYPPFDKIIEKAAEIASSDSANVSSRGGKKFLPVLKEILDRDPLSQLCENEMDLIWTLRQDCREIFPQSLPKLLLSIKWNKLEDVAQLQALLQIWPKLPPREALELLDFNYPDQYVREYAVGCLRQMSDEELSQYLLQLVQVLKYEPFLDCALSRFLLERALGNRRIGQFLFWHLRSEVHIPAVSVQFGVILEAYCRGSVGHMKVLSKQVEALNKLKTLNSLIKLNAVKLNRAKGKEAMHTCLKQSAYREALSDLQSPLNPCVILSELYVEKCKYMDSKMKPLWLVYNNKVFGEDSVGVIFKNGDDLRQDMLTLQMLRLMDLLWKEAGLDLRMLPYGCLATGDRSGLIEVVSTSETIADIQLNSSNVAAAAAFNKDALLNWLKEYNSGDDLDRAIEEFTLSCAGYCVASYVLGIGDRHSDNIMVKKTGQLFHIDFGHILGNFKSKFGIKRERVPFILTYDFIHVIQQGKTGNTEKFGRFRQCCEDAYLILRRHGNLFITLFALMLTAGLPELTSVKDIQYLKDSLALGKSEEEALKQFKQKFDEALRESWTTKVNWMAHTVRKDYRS
Chain of p110β/p85α (P27986 whole entry partner): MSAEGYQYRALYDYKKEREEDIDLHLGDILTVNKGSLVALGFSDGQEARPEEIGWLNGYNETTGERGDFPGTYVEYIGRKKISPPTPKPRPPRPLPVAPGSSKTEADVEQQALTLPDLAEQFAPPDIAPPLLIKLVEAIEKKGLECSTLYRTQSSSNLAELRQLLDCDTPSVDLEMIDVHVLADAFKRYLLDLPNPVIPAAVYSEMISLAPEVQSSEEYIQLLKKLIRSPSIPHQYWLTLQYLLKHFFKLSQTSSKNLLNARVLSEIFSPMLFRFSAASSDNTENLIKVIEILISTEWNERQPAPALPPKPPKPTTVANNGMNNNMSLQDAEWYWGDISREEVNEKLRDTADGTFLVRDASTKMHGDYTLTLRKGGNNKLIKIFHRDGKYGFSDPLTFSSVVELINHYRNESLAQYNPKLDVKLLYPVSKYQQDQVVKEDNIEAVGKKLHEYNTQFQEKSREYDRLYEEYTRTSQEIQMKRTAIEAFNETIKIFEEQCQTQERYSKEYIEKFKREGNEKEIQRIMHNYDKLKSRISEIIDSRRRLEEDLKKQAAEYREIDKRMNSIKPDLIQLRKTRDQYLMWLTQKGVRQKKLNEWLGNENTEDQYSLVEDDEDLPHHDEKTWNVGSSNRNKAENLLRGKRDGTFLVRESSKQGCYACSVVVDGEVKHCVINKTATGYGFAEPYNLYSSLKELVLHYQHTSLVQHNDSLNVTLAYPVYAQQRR

[1] = in vitro, read-out: PI3K α IC50
[2] = in vitro, read-out: PI3K δ IC50

Chain of p110δ/p85α (O00329 whole entry): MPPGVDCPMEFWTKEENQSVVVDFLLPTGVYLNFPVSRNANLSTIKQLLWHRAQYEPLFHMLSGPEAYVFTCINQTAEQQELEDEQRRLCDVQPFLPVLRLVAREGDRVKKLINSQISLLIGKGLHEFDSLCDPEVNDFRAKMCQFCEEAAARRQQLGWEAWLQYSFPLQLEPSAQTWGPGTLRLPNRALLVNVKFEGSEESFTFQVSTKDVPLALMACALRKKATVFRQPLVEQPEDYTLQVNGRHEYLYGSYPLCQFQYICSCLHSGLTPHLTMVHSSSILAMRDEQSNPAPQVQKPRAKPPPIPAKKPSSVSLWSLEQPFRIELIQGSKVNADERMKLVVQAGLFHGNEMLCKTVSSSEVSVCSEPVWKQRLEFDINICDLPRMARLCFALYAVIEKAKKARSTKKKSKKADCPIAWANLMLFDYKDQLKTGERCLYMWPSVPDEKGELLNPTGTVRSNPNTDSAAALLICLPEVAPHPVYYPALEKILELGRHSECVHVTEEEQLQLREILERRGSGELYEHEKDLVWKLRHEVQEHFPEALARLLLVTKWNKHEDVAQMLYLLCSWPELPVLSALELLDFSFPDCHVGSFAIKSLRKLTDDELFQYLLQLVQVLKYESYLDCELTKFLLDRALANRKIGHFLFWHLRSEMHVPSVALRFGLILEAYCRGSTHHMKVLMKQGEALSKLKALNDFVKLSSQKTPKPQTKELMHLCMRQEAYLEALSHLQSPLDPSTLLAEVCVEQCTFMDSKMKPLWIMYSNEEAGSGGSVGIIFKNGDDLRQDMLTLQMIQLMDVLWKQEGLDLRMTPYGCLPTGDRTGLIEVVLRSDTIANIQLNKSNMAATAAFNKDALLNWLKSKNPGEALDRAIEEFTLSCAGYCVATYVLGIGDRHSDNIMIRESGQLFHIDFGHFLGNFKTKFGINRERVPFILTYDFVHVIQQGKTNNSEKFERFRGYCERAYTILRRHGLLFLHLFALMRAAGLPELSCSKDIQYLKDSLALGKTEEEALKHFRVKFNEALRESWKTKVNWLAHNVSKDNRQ
Chain of p110δ/p85α (P27986 whole entry partner): as the sequence (P27986 whole entry partner) above
Chain of p110α/p85α (P42336 whole entry): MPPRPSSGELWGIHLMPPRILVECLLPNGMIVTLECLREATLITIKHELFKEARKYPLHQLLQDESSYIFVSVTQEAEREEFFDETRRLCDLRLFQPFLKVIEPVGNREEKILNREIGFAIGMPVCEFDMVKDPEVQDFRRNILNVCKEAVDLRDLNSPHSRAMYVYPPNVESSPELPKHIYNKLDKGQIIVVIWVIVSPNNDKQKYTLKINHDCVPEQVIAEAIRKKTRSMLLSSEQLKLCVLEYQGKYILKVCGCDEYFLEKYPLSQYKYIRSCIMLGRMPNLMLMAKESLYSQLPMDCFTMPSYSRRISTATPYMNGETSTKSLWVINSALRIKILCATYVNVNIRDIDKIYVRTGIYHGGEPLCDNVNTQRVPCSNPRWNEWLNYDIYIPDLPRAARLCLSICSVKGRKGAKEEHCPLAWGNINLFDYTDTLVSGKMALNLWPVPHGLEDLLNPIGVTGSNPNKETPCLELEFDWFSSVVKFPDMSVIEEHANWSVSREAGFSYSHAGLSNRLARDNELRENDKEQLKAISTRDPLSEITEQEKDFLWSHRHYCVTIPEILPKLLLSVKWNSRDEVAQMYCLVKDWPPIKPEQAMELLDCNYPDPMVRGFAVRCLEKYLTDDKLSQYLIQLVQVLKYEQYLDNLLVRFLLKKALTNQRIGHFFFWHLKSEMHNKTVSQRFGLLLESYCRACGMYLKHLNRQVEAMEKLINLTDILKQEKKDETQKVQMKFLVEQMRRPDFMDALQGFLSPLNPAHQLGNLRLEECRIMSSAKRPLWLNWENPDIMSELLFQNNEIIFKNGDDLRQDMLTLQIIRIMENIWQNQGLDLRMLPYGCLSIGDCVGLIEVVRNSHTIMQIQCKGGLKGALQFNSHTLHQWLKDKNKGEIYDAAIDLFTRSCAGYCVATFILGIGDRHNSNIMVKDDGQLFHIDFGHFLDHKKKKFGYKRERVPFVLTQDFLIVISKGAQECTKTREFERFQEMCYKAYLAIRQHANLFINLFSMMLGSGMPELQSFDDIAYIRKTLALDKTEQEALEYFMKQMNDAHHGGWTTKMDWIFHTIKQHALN
Chain of p110α/p85α (P27986 whole entry partner): as the sequence (P27986 whole entry partner) above

Row | IC50 (p110α/p85α; read-out: PI3K α IC50) [µM] | IC50 (p110δ/p85α; read-out: PI3K δ IC50) [µM] | IC50 (p110γ; read-out: PI3K γ IC50) [µM] | IC50 (p110α/p85α; read-out: PI3K α In Vitro IC50) [µM] | IC50 (p110δ/p85α; read-out: PI3K δ In Vitro IC50) [µM] | IC50 (p110γ; read-out: PI3K γ In Vitro IC50) [µM] | SMILES | other results
1 | < 1 | < 10 | < 0.1 | – | – | – | Nc1nc2cc(-c3ccc4nccc(CCN5CCOCC5)c4c3)ccc2o1 [compound 27] | –
2 | < 0.1 | < 1 | < 0.1 | – | – | – | Nc1nc2cc(-c3ccc4nccc(N5CCOCC5)c4c3)ccc2o1 [compound 28] | –
3 | < 0.1 | < 0.1 | < 0.1 | – | – | – | Nc1nc2cc(-c3ccc4ncnc(N5CCC(O)CC5)c4c3)ccc2o1 [compound 29] | –
4 | < 0.1 | < 0.1 | < 0.1 | – | – | – | CN1CCN(c2cc(-c3ccnc4ccc(-c5ccc6oc(N)nc6c5)cc34)ccn2)CC1 [compound 30] | –
5 | < 0.1 | < 0.1 | < 0.1 | – | – | – | Nc1nc2cc(-c3ccc4nccc(-c5cccnc5)c4c3)ccc2o1 [compound 31] | –
6 | < 0.1 | < 1 | < 1 | – | – | – | Nc1nc2cc(-c3ccc4nccc(NCCN5CCOCC5)c4c3)ccc2o1 [compound 33] | –
7 | < 0.1 | < 1 | < 0.1 | – | – | – | CN1CCC(Oc2ncnc3ccc(-c4ccc5oc(N)nc5c4)cc23)CC1 [compound 34] | –
8 | < 0.1 | < 0.1 | < 0.1 | – | – | – | Nc1nc2cc(-c3ccc4ncc(-c5cccnc5)n4c3)ccc2o1 [compound 37] | –
9 | < 0.1 | < 0.1 | < 0.1 | – | – | – | Nc1nc2cc(-c3ccc4ncc(-c5cn[nH]c5)n4c3)ccc2o1 [compound 38] | –
10 | < 0.1 | < 0.1 | < 0.1 | – | – | – | Nc1nc2cc(-c3ccc4ncc(C#CC5CC5)n4c3)ccc2o1 [compound 39] | –
11 | < 0.1 | < 0.1 | < 0.1 | – | – | – | CN1CCN(c2cc(-c3cnc4ccc(-c5ccc6oc(N)nc6c5)cn34)ccn2)CC1 [compound 43] | –
12 | < 1 | < 10 | < 1 | – | – | – | Nc1nc2ccc(-c3ccc4ncc(C(=O)N5CCOCC5)n4c3)cc2s1 [compound 125] | –
13 | < 0.1 | < 1 | < 0.1 | – | – | – | Nc1nc2cc(-c3ccc4ncc(C(=O)Nc5cccnc5)n4c3)ccc2o1 [compound 190] | –
14 | – | – | – | – | – | – | Nc1nc2cc(-c3ccc4ncc(N5CCN(C(=O)C6(N)CC6)CC5)nc4c3)ccc2o1 [compound 226] | IC50 (p110α/p85α; [1]): < 1 µM; IC50 (p110δ/p85α; [2]): < 10 µM; IC50 (p110γ; in vitro, read-out: PI3K γ IC50): < 10 µM
15 | – | – | – | – | – | – | CCN(CC)CCCn1cnc2ccc(-c3ccc4oc(N)nc4c3)cc2c1=O [compound 281] | IC50 (p110α/p85α; [1]): < 1 µM; IC50 (p110δ/p85α; [2]): < 10 µM
16 | – | – | – | < 0.1 | < 1 | < 1 | COc1ncc(-c2ccc3ncc(C(=O)N4CCOCC4)n3c2)cc1NS(=O)(=O)c1ccccc1 [compound 420] | –
17 | – | – | – | < 1 | < 10 | < 1 | O=C(c1cnc2ccc(-c3cncc(NS(=O)(=O)c4ccccc4)c3)cn12)N1CCOCC1 [compound 424] | –
18 | – | – | – | < 0.1 | < 1 | < 0.1 | O=C(c1cnc2ccc(-c3cncc(NS(=O)(=O)c4ccc(F)cc4F)c3)cn12)N1CCOCC1 [compound 425] | –
19 | – | – | – | < 10 | < 10 | < 10 | O=C(c1cnc2ccc(-c3cccc(NS(=O)(=O)c4ccc(F)cc4F)c3)cn12)N1CCOCC1 [compound 454] | –
20 | – | – | – | < 0.1 | < 10 | < 0.1 | Nc1nc2cc(-c3ccc4ncc(C(=O)N5CC[C@@H](F)C5)n4c3)ccc2o1 [compound 475] | –
21 | – | – | – | < 0.1 | < 10 | < 1 | Nc1nc2cc(-c3ccc4ncc(C(=O)N5CC[C@@H](n6cccn6)C5)n4c3)ccc2o1 [compound 477] | –
22 | – | – | – | < 0.1 | < 10 | < 1 | Nc1nc2cc(-c3ccc4ncc(C(=O)N5CC(n6cccn6)C5)n4c3)ccc2o1 [compound 479] | –
23 | – | – | – | < 0.1 | < 10 | < 1 | C[C@H]1CCCN1C(=O)c1cnc2ccc(-c3ccc4oc(N)nc4c3)cn12 [compound 482] | –
24 | – | – | – | < 1 | – | < 0.1 | Nc1nc2cc(-c3ccc4ncc(C(=O)N5CC6CCC(C5)O6)n4c3)ccc2o1 [compound 504] | IC50 (p110β/p85α): < 10 µM
